Data: US20230365546A1, “5-SUBSTITUTED INDOLE 3-AMIDE DERIVATIVES, PREPARATION METHOD AND USE THEREOF” (ORIGIANT PHARMACEUTICAL CO., LTD, priority 2020, published 2023)

What was measured:
RIPK1 = RIPK1 (Homo sapiens (Human), UniProt Q13546); experiment: In vitro kinase assay (Eurofins Kinase Profiler), IC50; format: biochemical; conditions: 0.001-10 μM, read-out: RIPK 1 (IC50)
Method: In vitro kinase assays were conducted using Kinase Profiler services provided by Eurofins. The experimental method was as follows: the small molecule compound to be tested (0.001-10 μM), the protein kinase to be tested were incubated with a buffer containing substrate, 10 mM magnesium acetate, and [γ-^33P-ATP], the reaction was started by adding Mg\TPmix, after incubation for a period of time at room temperature, a 3% phosphate solution was added to the buffer to stop the reaction. Subsequently, 10 μL of the reaction mixture was quantitatively pipetted onto P30 filter paper, which was washed three times with 75 mM phosphate solution and then once with methanol. The P30 filter paper was air-dried and scintillation fluid was added for scintillation counting.

HT-29 cells = experiment: Protection against programmed necrosis of HT-29 cells (TNF α/Smac mimetic/Z-VAD-FMK, CCK8); format: cell-based; conditions: Homo sapiens, TNF α/Smac mimetic/Z-VAD-FMK induced 24 h, CCK8, read-out: HT-29 (EC50)

RIPK1, sequence (Q13546 whole entry): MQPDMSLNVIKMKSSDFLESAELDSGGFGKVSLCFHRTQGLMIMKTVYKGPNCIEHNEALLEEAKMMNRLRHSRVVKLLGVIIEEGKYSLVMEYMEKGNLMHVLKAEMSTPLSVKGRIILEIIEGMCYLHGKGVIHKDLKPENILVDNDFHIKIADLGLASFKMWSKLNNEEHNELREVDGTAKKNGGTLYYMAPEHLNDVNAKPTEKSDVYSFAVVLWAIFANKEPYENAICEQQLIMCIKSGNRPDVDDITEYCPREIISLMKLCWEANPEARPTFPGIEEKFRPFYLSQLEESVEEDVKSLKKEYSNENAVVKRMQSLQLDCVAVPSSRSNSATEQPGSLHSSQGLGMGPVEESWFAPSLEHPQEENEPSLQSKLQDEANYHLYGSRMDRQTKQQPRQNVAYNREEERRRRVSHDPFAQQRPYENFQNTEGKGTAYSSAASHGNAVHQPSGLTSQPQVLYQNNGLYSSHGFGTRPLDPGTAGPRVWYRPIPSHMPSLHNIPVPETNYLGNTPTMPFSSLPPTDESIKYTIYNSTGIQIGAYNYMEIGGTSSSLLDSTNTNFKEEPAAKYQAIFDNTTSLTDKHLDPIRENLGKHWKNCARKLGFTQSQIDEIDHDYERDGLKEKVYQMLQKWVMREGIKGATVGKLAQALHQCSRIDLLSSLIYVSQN

| IC50 (RIPK1) | Structure (SMILES) | EC50 (HT-29 cells) |
| --- | --- | --- |
| 10 to 100 nM | C[C@H](NC(=O)c1cn(C)c2ccc(-c3ccc4nc(NC(=O)C5CC5)nn4c3)cc12)c1cccc(F)c1 [Compound 155] | 1 to 10 nM |
| 10 to 100 nM | C[C@@H](NC(=O)c1cn(C)c2ccc(-c3ccn4nc(NC(=O)C5CC5)nc4c3)cc12)c1cccc(F)c1 [Compound 156] | < 1 nM |
| 10 to 100 nM | CC(C)C(=O)Nc1nc2cc(-c3cnc4[nH]cc(C(=O)N[C@@H](C)c5cccc(F)c5)c4c3)ccn2n1 [Compound 157] | 1 to 10 nM |
| 1 to 10 nM | CC(C)C(=O)Nc1nc2cc(-c3cnc4c(c3)c(C(=O)N[C@@H](C)c3cccc(F)c3)cn4C)ccn2n1 [Compound 158] | < 1 nM |
| 100 to 1000 nM | CC(C)C(=O)Nc1nc2cc(-c3cn(C)c4ncc(C(=O)N[C@@H](C)c5cccc(F)c5)cc34)ccn2n1 [Compound 159] | 100 to 1000 nM |
| 10 to 100 nM | C[C@H](NC(=O)c1ccc2ncc(-c3ccn4nc(NC(=O)C5CC5)nc4c3)cc2c1)c1cccc(F)c1 [Compound 160] | 10 to 100 nM |
| 1 to 10 nM | C[C@H](NC(=O)c1cn(C)c2ccc(-c3ccn4nc(NC(=O)C5CCCO5)nc4c3)cc12)c1cccc(F)c1 (stereo partly drawn) [Compound 161] | < 1 nM |
| 10 to 100 nM | C[C@H](NC(=O)c1cn(C)c2ccc(-c3ccn4nc(NC(=O)N5CC[C@@H](O)C5)nc4c3)cc12)c1cccc(F)c1 [Compound 162, N-((S)-1-(3-fluorophenyl)ethyl)-5-(2-((R)-3-hydroxypyrrolidine-1-carboxamido)-[1,2,4]triazolo[1,5-a]pyridin-7-yl)-1-methyl-1H-indole-3-carboxamide] | 10 to 100 nM |
| 100 to 1000 nM | C[C@H](NC(=O)c1cn(C)c2ccc(-c3ccn4nc(NC(=O)N5CC[C@H](O)C5)nc4c3)cc12)c1cccc(F)c1 [Compound 163] | 10 to 100 nM |
| 100 to 1000 nM | C[C@H](NC(=O)c1cn(C)c2ccc(-c3ccn4nc(NC(=O)N5CCC[C@H]5CO)nc4c3)cc12)c1cccc(F)c1 [Compound 164] | 1 to 10 nM |
| 10 to 100 nM | C[C@H](NC(=O)c1cn(C)c2ccc(-c3ccn4nc(NC(=O)N[C@@H](C)CO)nc4c3)cc12)c1cccc(F)c1 [Compound 165] | < 1 nM |
| 10 to 100 nM | CC(NC(=O)c1cn(C)c2ccc(-c3ccn4nc(NC(=O)C5CC5)nc4c3)cc12)c1ccc(F)c(F)c1 (stereo not drawn) [Compound 167] | 10 to 100 nM |
| 1 to 10 nM | C[C@H](NC(=O)c1cn(C)c2ccc(-c3ccn4nc(NC(=O)N5CCCC(O)C5)nc4c3)cc12)c1cccc(F)c1 (stereo partly drawn) [Compound 169] | < 1 nM |
| 1 to 10 nM | C[C@H](NC(=O)c1cn(C)c2ccc(-c3ccn4nc(NC(=O)N5CCC(O)CC5)nc4c3)cc12)c1cccc(F)c1 [Compound 170] | < 1 nM |
| 1 to 10 nM | CC(C)CNc1nc2cc(-c3ccc4c(c3)c(C(=O)N[C@@H](C)c3cccc(F)c3)cn4C)ccn2n1 [Compound 171] | < 1 nM |
| ≥ 1000 nM | C[C@H](NC(=O)c1cn(C)c2ccc(-c3ccn4nc(NC(=O)N5CC(O)C5)nc4c3)cc12)c1cccc(F)c1 [Compound 172] | 100 to 1000 nM |
| 1 to 10 nM | Cn1cc(C(=O)N2CCC[C@H]2c2cccc(F)c2)c2cc(-c3ccn4nc(NC(=O)C5CC5)nc4c3)ccc21 [Compound 173] | < 1 nM |
| 10 to 100 nM | CC(C)C(=O)Nc1nc2cc(-c3ccc4c(c3)c(C(=O)N[C@@H](C)c3ccncc3)cn4C)ccn2n1 [Compound 175] | 10 to 100 nM |
| 100 to 1000 nM | C[C@H](NC(=O)c1cn(C)c2ccc(-c3ccn4nc(NC(=O)C5CC5)nc4c3)cc12)c1ccncc1 [Compound 176] | 100 to 1000 nM |
| 10 to 100 nM | C[C@H](NC(=O)c1cn(C)c2ccc(-c3ccn4nc(NC(=O)N5CCC[C@@H]5CO)nc4c3)cc12)c1cccc(F)c1 [Compound 177] | 10 to 100 nM |
| 1 to 10 nM | C[C@H](NC(=O)c1cn(C)c2ccc(-c3ccn4nc(NC(=O)N5CCNCC5)nc4c3)cc12)c1cccc(F)c1 [Compound 178] | 1 to 10 nM |
| < 1 nM | C[C@H](NC(=O)c1cn(C)c2ccc(-c3ccn4nc(NC(=O)[C@H]5CCCN5)nc4c3)cc12)c1cccc(F)c1 [Compound 179] | < 1 nM |

| IC50 (RIPK1) | Structure (SMILES) | EC50 (HT-29 cells) |
| --- | --- | --- |
| 1 to 10 nM | C[C@H](NC(=O)c1cn(C)c2ccc(-c3ccn4nc(NC(=O)[C@@H]5CCCN5)nc4c3)cc12)c1cccc(F)c1 [Compound 180] | < 1 nM |
| 100 to 1000 nM | COc1ccc([C@H](C)NC(=O)c2cn(C)c3ccc(-c4ccn5nc(NC(=O)C6CC6)nc5c4)cc23)cc1F [Compound 181] | 100 to 1000 nM |
| 1 to 10 nM | C[C@H](NC(=O)c1cn(C)c2ccc(-c3ccn4nc(NC(=O)C5CC5)nc4c3)cc12)c1ccc(F)c(F)c1 [Compound 182] | < 1 nM |
| 100 to 1000 nM | Cn1cc(C(=O)N[C@H]2CCc3ccc(F)cc32)c2cc(-c3ccn4nc(NC(=O)C5CC5)nc4c3)ccc21 [Compound 183] | 100 to 1000 nM |
| 100 to 1000 nM | Cn1cc(C(=O)N[C@H]2CCCc3ccc(F)cc32)c2cc(-c3ccn4nc(NC(=O)C5CC5)nc4c3)ccc21 [Compound 184] | 100 to 1000 nM |
| 1 to 10 nM | Cn1cc(C(=O)N2CCCC2c2cccc(F)c2)c2cc(-c3ccn4nc(NC(=O)C5CC5)cc4n3)ccc21 (stereo not drawn) [Compound 185] | < 1 nM |
| 100 to 1000 nM | C[C@H](NC(=O)c1cn(C)c2ncc(-c3ccn4nc(NC(=O)C5CC5)nc4c3)cc12)c1cccc(F)c1 [Compound 186] | 100 to 1000 nM |
| < 1 nM | Cn1cc(C(=O)N2CCCC2c2cccc(F)c2)c2cc(-c3ccc4nc(NC(=O)C5CC5)cn4n3)ccc21 (stereo not drawn) [Compound 187] | < 1 nM |
| 100 to 1000 nM | Cn1cc(C(=O)N[C@H]2CCCc3ccccc32)c2cc(-c3ccc4nc(NC(=O)C5CC5)cn4n3)ccc21 [Compound 188] | 100 to 1000 nM |
| 100 to 1000 nM | Cc1cccc(C2CCCN2C(=O)c2cn(C)c3ccc(-c4ccn5nc(NC(=O)C6CC6)nc5c4)cc23)c1 (stereo not drawn) [Compound 189] | 100 to 1000 nM |
| 1 to 10 nM | Cn1cc(C(=O)N2CCCC2c2cc(F)ccc2F)c2cc(-c3ccn4nc(NC(=O)C5CC5)nc4c3)ccc21 (stereo not drawn) [Compound 190] | 1 to 10 nM |
| < 1 nM | Cn1cc(C(=O)N2CCC[C@H]2c2cc(F)cc(F)c2)c2cc(-c3ccn4nc(NC(=O)C5CC5)nc4c3)ccc21 [Compound 192] | < 1 nM |
| < 1 nM | Cn1cc(C(=O)N2CCC[C@H]2c2ccc(Cl)cc2)c2cc(-c3ccn4nc(NC(=O)C5CC5)nc4c3)ccc21 [Compound 194] | < 1 nM |
| < 1 nM | CNC(=O)Nc1nc2cc(-c3ccc4c(c3)c(C(=O)N[C@@H](C)c3cccc(F)c3)cn4C)ccn2n1 [Compound 195] | < 1 nM |
| 10 to 100 nM | C[C@H](NC(=O)c1cn(C)c2ccc(-c3ccn4nc(N[C@@H](C)CO)nc4c3)cc12)c1cccc(F)c1 [Compound 196] | < 1 nM |
| 1 to 10 nM | CCn1cc(C(=O)N2CCC[C@H]2c2ccc(F)cc2)c2cc(-c3ccn4nc(NC(=O)C5CC5)nc4c3)cnc21 [Compound 197] | < 1 nM |
| ≥ 1000 nM | Cn1cc(C(=O)N2C(CO)CC[C@H]2c2ccc(F)cc2)c2cc(-c3ccn4nc(NC(=O)C5CC5)nc4c3)ccc21 (stereo partly drawn) [Compound 202] | 10 to 100 nM |
| 10 to 100 nM | Cn1cc(C(=O)N[C@@H](CO)c2ccc(F)cc2)c2cc(-c3ccn4nc(NC(=O)C5CC5)nc4c3)ccc21 [Compound 203] | < 1 nM |
| 1 to 10 nM | [2H]C([2H])([2H])n1cc(C(=O)N[C@H](c2ccc(F)cc2)C2CC2)c2cc(-c3ccn4nc(NC(=O)C5CC5)nc4c3)ccc21 [Compound 206] | < 1 nM |
| 100 to 1000 nM | [2H]C([2H])([2H])n1cc(C(=O)N[C@H](c2ccc(F)cc2)C2CC2)c2cc(-c3ccn4nc(NC(=O)CN(C)C)nc4c3)ccc21 [Compound 207] | 1 to 10 nM |
| 10 to 100 nM | [2H]C([2H])([2H])n1cc(C(=O)N[C@@H](CC)c2ccc(F)cc2)c2cc(-c3ccn4nc(NC(=O)C5CC5)nc4c3)ccc21 [Compound 208] | < 1 nM |
| 1 to 10 nM | CCN(CC)CC(=O)Nc1nc2cc(-c3ccc4c(c3)c(C(=O)N3CCC[C@H]3c3ccc(F)cc3)cn4C)ccn2n1 [Compound 209] | < 1 nM |

| Structure (SMILES) | IC50 (RIPK1) | EC50 (HT-29 cells) |
| --- | --- | --- |
| CCCCn1cc(C(=O)N[C@@H](C)c2cccc(F)c2)c2cc(-c3ccn4nc(NC(=O)C5CC5)nc4c3)ccc21 [Compound 152] | 10 to 100 nM | 10 to 100 nM |
| CC(C)Cn1cc(C(=O)N[C@@H](C)c2cccc(F)c2)c2cc(-c3ccn4nc(NC(=O)C(C)C)nc4c3)ccc21 [Compound 153] | 100 to 1000 nM | 100 to 1000 nM |
| COCCn1cc(C(=O)N[C@@H](C)c2cccc(F)c2)c2cc(-c3ccn4nc(NC(=O)C5CC5)nc4c3)ccc21 [Compound 154] | 10 to 100 nM | 1 to 10 nM |
| CCn1cc(C(=O)N2CCC[C@H]2c2ccc(F)cc2)c2cc(-c3ccn4nc(NC(=O)[C@H](C)OC(C)=O)nc4c3)ccc21 [Compound 198] | 10 to 100 nM | 1 to 10 nM |
| CC[C@H](NC(=O)c1cn(CC)c2ccc(-c3ccn4nc(NC(=O)C5CC5)nc4c3)cc12)c1ccc(F)cc1 [Compound 199] | 1 to 10 nM | < 1 nM |
| CCn1cc(C(=O)N[C@H](c2ccc(F)cc2)C2CC2)c2cc(-c3ccn4nc(NC(=O)C5CC5)nc4c3)ccc21 [Compound 200] | 10 to 100 nM | < 1 nM |
| CCn1cc(C(=O)N2CCC[C@H]2c2ccc(F)cc2)c2cc(-c3ccn4nc(NC(=O)CN(C)C)nc4c3)ccc21 [Compound 201] | 10 to 100 nM | 1 to 10 nM |
| CCn1cc(C(=O)N2CCC[C@H]2c2ccc(F)cc2)c2cc(-c3ccn4nc(NC(=O)[C@@H](C)O)nc4c3)ccc21 [Compound 204] | 10 to 100 nM | < 1 nM |
| CCn1cc(C(=O)N2CCC[C@H]2c2ccc(F)cc2)c2cc(-c3ccn4nc(NC(=O)[C@H](C)O)nc4c3)ccc21 [Compound 205] | 10 to 100 nM | < 1 nM |
| CCn1cc(C(=O)N[C@H](c2ccc(F)cc2)C2CC2)c2cc(-c3ccn4nc(NC(=O)CN(C)C)nc4c3)ccc21 [Compound 210] | 10 to 100 nM | < 1 nM |
